Experimental findings from patent publication US7923450B2, “Modulators for amyloid beta” (Hoffmann-La Roche Inc., priority 2008, dated 2011) are described below.

Each structure is given as a SMILES string. Where a name gives a salt, the structure may show the parent alone.

The test system of the assay is γ-secretase. The assay can be described thus: Cellular γ-secretase assay (Aβ42 secretion). In kind it is cell-based. Particulars: inhibition of Aβ42 secretion; human neuroglioma H4 cells overexpressing human APP; 22 hrs incubation; read-out: EC50 in vitro. How it is done:
Cellular γ-Secretase Assay
Human neuroglioma H4 cells overexpressing human APP were plated at 30,000 cells/well/200 μl in 96-well plates in IMDM media containing 10% FCS, 0.2 mg/l Hygromycin B and incubated for 2 h at 37° C., 5% CO2 prior to adding test compounds.
Compounds for testing were dissolved in 100% Me2SO yielding in a 10 mM stock solution. Typically 12 μl of these solutions were further diluted in 1000 μl of IMDM media (w/o FCS,). Sub sequential 1:1 dilutions gave a ten point dose response curve. 100 μl of each dilution was added to the cells in 96-well plates. Appropriate controls using vehicle only and reference compound were applied to this assay. The final concentration of Me2SO was 0.4%.
After incubation for 22 hrs at 37° C., 5% CO2, 50 μl supernatant was transferred into round-bottom 96-well polypropylene plates for detection of Aβ42. 50 μl assay buffer (50 mM Tris/Cl, pH 7.4, 60 mM NaCl, 0.5% BSA, 1% TWEEN 20) was added to the wells followed by the addition of 100 μl of detection antibody (ruthenylated Aβ42-specific antibody BAP15 0.0625 μg/mL in assay buffer). 50 μl of a premix of capture antibody (biotinylated 6E10 antibody, 1 μg/mL) and Steptavidin-coated magnetic beads (Dynal M-280, 0.125 mg/mL) were preincubated for 1 hr at room temperature before adding the assay plates. Assay plates were incubated on a shaker for 3 hrs at room temperature and finally read in the Bioveris M8 Analyser according to the manufacturer's instructions (Bioveris).
EC50 values for inhibition of Aβ42 secretion were calculated by nonlinear regression fit analysis using XLfit 4.0 software (IDBS).
By EC50 is commonly meant the concentration that produces a half-maximal response. On to `COc1cc(Nc2nc3c(s2)CCCC3c2ccccc2)ccc1-c1cnco1` (stereo not drawn) [Example 1, (3-Methoxy-4-oxazol-5-yl-phenyl)-(4-phenyl-4,5,6,7-tetrahydro-benzothiazol-2-yl)-amine], for which the EC50 turned out to be 300 nM.
As to `Cc1cn(-c2ccc(Nc3nc4c(s3)CCCC4c3ccccc3)cc2F)cn1` (stereo not drawn) [Example 5, [3-Fluoro-4-(4-methyl-imidazol-1-yl)-phenyl]-(4-phenyl-4,5,6,7-tetrahydro-benzothiazol-2-yl)-amine], the EC50 amounted to 50 nM.
On to `COc1cc(Nc2nc3c(s2)CCCC3c2ccccc2)ccc1-n1cnc(C)c1` (stereo not drawn) [Example 6, [3-Methoxy-4-(4-methyl-imidazol-1-yl)-phenyl]-(4-phenyl-4,5,6,7-tetrahydro-benzothiazol-2-yl)-amine], for which the EC50 came out at 40 nM.
Next, `COc1ccccc1C1CCCc2sc(Nc3ccc(-n4cnc(C)c4)c(OC)c3)nc21` (stereo not drawn) [Example 7, [3-Methoxy-4-(4-methyl-imidazol-1-yl)-phenyl]-[4-(2-methoxy-phenyl)-4,5,6,7-tetrahydro-benzothiazol-2-yl]-amine]: 110 nM; `COc1cc(Nc2nc3c(s2)CCCC3c2ccc(C)c(C(F)(F)F)c2)ccc1-n1cnc(C)c1` (stereo not drawn) [Example 9, [3-Methoxy-4-(4-methyl-imidazol-1-yl)-phenyl]-[4-(4-methyl-3-trifluoromethyl-phenyl)-4,5,6,7-tetrahydro-benzothiazol-2-yl]-amine]: 100 nM; `COc1cc(Nc2nc3c(s2)CCCC3c2ccc(OC(F)(F)F)cc2)ccc1-n1cnc(C)c1` (stereo not drawn) [Example 10, [3-Methoxy-4-(4-methyl-imidazol-1-yl)-phenyl]-[4-(4-trifluoromethoxy-phenyl)-4,5,6,7-tetrahydro-benzothiazol-2-yl]-amine]: 100 nM.
As for `COc1cc(Nc2nc3c(s2)CCCC3c2cc(F)ccc2F)ccc1-n1cnc(C)c1` (stereo not drawn) [Example 12, [4-(2,5-Difluoro-phenyl)-4,5,6,7-tetrahydro-benzothiazol-2-yl]-[3-methoxy-4-(4-methyl-imidazol-1-yl)-phenyl]-amine], the EC50 is 160 nM.
Turning to `COc1cc(Nc2nc3c(s2)CCCC3c2cc(C)ccc2C)ccc1-n1cnc(C)c1` (stereo not drawn) [Example 13, [4-(2,5-Dimethyl-phenyl)-4,5,6,7-tetrahydro-benzothiazol-2-yl]-[3-methoxy-4-(4-methyl-imidazol-1-yl)-phenyl]-amine], the EC50 was 120 nM.
Next, `COc1cc(Nc2nc3c(s2)CCCC3c2ccccc2Cl)ccc1-n1cnc(C)c1` (stereo not drawn) [Example 14, [4-(2-Chloro-phenyl)-4,5,6,7-tetrahydro-benzothiazol-2-yl]-[3-methoxy-4-(4-methyl-imidazol-1-yl)-phenyl]-amine]: 70 nM; `COc1cc(Nc2nc3c(s2)CCCC3c2ccc(C)c(F)c2)ccc1-n1cnc(C)c1` (stereo not drawn) [Example 15]: 90 nM.
Next, `COc1cc(Nc2nc3c(s2)CCCC3c2ccc(Cl)c(C(F)(F)F)c2)ccc1-n1cnc(C)c1` (stereo not drawn) [Example 16, [4-(4-Chloro-3-trifluoromethyl-phenyl)-4,5,6,7-tetrahydro-benzothiazol-2-yl]-[3-methoxy-4-(4-methyl-imidazol-1-yl)-phenyl]-amine]: 90 nM; `Cc1cn(-c2ccc(Nc3nc4c(s3)CCCC4c3ccccc3)cc2)cn1` (stereo not drawn) [Example 18, [4-(4-Methyl-imidazol-1-yl)-phenyl]-(4-phenyl-4,5,6,7-tetrahydro-benzothiazol-2-yl)-amine]: 130 nM; `COc1cc(Nc2nc3c(s2)CCCC3(CC#N)c2ccc(Cl)cc2)ccc1-n1cnc(C)c1` (stereo not drawn) [Example 19, {4-(4-Chloro-phenyl)-2-[3-methoxy-4-(4-methyl-imidazol-1-yl)-phenylamino]-4,5,6,7-tetrahydro-benzothiazol-4-yl}-acetonitrile]: 260 nM.
`Cc1cn(-c2ccc(Nc3nc4c(s3)CCCC4c3ccccc3)cc2C#N)cn1` (stereo not drawn) [Example 21, 2-(4-Methyl-imidazol-1-yl)-5-(4-phenyl-4,5,6,7-tetrahydro-benzothiazol-2-ylamino)-benzonitrile]: the EC50 came to 120 nM.
On to `COc1cc(Nc2nc3c(s2)CN(Cc2ccccc2)CC3c2ccccc2Cl)ccc1-n1cnc(C)c1` (stereo not drawn) [Example 23], for which the EC50 came out at 70 nM.
The result for `COc1cc(Nc2nc3c(s2)CN(Cc2ccccc2)CC3c2ccc(Cl)c(F)c2)ccc1-n1cnc(C)c1` (stereo not drawn) [Example 24, [5-Benzyl-7-(4-chloro-3-fluorophenyl)-4,5,6,7-tetrahydro-thiazolo[5,4-c]pyridin-2-yl]-[3-methoxy-4-(4-methyl-imidazol-1-yl)-phenyl]-amine] reads 70 nM; that for `COc1cc(Nc2nc3c(s2)CCCC3c2ccc(Cl)cc2Cl)ccc1-n1cnc(C)c1` (stereo not drawn) [Example 25, [4-(2,4-Dichloro-phenyl)-4,5,6,7-tetrahydro-benzothiazol-2-yl]-[3-methoxy-4-(4-methyl-imidazol-1-yl)-phenyl]-amine], 100 nM.
For the compound `COc1cc(Nc2nc3c(s2)CCCC3c2cc(Cl)ccc2Cl)ccc1-n1cnc(C)c1` (stereo not drawn) [Example 26, [4-(2,5-Dichloro-phenyl)-4,5,6,7-tetrahydro-benzothiazol-2-yl]-[3-methoxy-4-(4-methyl-imidazol-1-yl)-phenyl]-amine], the EC50 amounted to 80 nM.
`COc1cc(Nc2nc3c(s2)CCCC3c2cc(Cl)cc(Cl)c2)ccc1-n1cnc(C)c1` (stereo not drawn) [Example 27, [4-(3,5-Dichloro-phenyl)-4,5,6,7-tetrahydro-benzothiazol-2-yl]-[3-methoxy-4-(4-methyl-imidazol-1-yl)-phenyl]-amine]: the EC50 stood at 70 nM.
Next, `COc1cc(Nc2nc3c(s2)CCCC3c2cc(F)cc(F)c2)ccc1-n1cnc(C)c1` (stereo not drawn) [Example 28, [4-(3,5-Difluoro-phenyl)-4,5,6,7-tetrahydro-benzothiazol-2-yl]-[3-methoxy-4-(4-methyl-imidazol-1-yl)-phenyl]-amine]: 120 nM.
Next, `COc1cc(Nc2nc3c(s2)CCCC3c2cc(C(F)(F)F)cc(C(F)(F)F)c2)ccc1-n1cnc(C)c1` (stereo not drawn) [Example 29, [4-(3,5-Trifluoromethyl-phenyl)-4,5,6,7-tetrahydro-benzothiazol-2-yl]-[3-methoxy-4-(4-methyl-imidazol-1-yl)-phenyl]-amine]: 100 nM; `Cc1cn(-c2ccc(Nc3ncc4c(n3)C(c3ccccc3)CCC4)cc2F)cn1` (stereo not drawn) [Example 38, [3-Fluoro-4-(4-methyl-imidazol-1-yl)-phenyl]-(8-phenyl-5,6,7,8-tetrahydro-quinazolin-2-yl)-amine]: 130 nM; `COc1cc(Nc2ncc3c(n2)C(c2ccccc2)CCC3)ccc1-n1cnc(C)c1` (stereo not drawn) [Example 39, [3-Methoxy-4-(4-methyl-imidazol-1-yl)-phenyl]-(8-phenyl-5,6,7,8-tetrahydro-quinazolin-2-yl)-amine]: 480 nM.
The result for `COc1cc(Nc2ncc3c(n2)C(c2ccccc2)CN(C(=O)OC(C)(C)C)C3)ccc1-n1cnc(C)c1` (stereo not drawn) [Example 40, 2-[3-Methoxy-4-(4-methyl-imidazol-1-yl)-phenylamino]-8-phenyl-7,8-dihydro-5H-pyrido[4,3-d]pyrimidine-6-carboxylic acid tert.-butyl ester] reads 270 nM; that for `COc1cc(Nc2ncc3c(n2)C(c2ccccc2)CNC3)ccc1-n1cnc(C)c1` (stereo not drawn) [Example 41, [3-Methoxy-4-(4-methyl-imidazol-1-yl)-phenyl]-(8-phenyl-5,6,7,8-tetrahydro-pyrido[4,3-d]pyrimidin-2-yl)-amine hydrochloride], 340 nM.
For the compound `COc1cc(Nc2ncc3c(n2)C(c2ccccc2)CN(C(C)=O)C3)ccc1-n1cnc(C)c1` (stereo not drawn) [Example 42, 1-{2-[3-Methoxy-4-(4-methyl-imidazol-1-yl)-phenylamino]-8-phenyl-7,8-dihydro-5H-pyrido[4,3-d]pyrimidin-6-yl}-ethanone], the EC50 is 500 nM.
The result for `CCN1Cc2cnc(Nc3ccc(-n4cnc(C)c4)c(OC)c3)nc2C(c2ccccc2)C1` (stereo not drawn) [Example 44, (6-Ethyl-8-phenyl-5,6,7,8-tetrahydro-pyrido[4,3-d]pyrimidin-2-yl)-[3-methoxy-4-(4-methyl-imidazol-1-yl)-phenyl]-amine] reads 320 nM; that for `Cc1cn(-c2ccc(Nc3nc4c(s3)CCCC4c3ccccc3)cc2O)cn1` (stereo not drawn) [Example 66, 2-(4-Methyl-imidazol-1-yl)-5-(4-phenyl-4,5,6,7-tetrahydro-benzothiazol-2-ylamino)-phenol], 210 nM.
The result for `Cc1ncc(-c2ccc(Nc3nc4c(s3)CCCC4c3ccccc3)cc2)o1` (stereo not drawn) [Example 68, [4-(2-Methyl-oxazol-5-yl)-phenyl]-(4-phenyl-4,5,6,7-tetrahydro-benzothiazol-2-yl)-amine] reads 130 nM.
Next, `COc1cc(Nc2ncc3c(n2)C(c2cc(F)c(F)c(F)c2)CCC3)ccc1-n1cnc(C)c1` (stereo not drawn) [Example 69, [3-Methoxy-4-(4-methyl-imidazol-1-yl)-phenyl]-[8-(3,4,5-trifluoro-phenyl)-5,6,7,8-tetrahydro-quinazolin-2-yl]-amine]: 250 nM.
